In patent US11766434B2, “Pyrimidinone derivatives as CDC7 inhibitors” (Cancer Research Technology Limited, priority 2016, dated 2023):
Values belong to the molecule of their own block, whether it stands above or below them.

What was measured:
Cdc7 [1] = target: T1, Cdc7 (Homo sapiens, UniProt O00311); assay: Cdc7 cell pharmacodynamics assay Method 3: pS53MCM2 levels in SW48 cells; assay type: cell-based; set-up: endogenous in cells; host or cells: SW48; details: 6 hours treatment, read-out: Biomarker Method 3 (pEC50) (converted)
T1 sequence (O00311 whole entry): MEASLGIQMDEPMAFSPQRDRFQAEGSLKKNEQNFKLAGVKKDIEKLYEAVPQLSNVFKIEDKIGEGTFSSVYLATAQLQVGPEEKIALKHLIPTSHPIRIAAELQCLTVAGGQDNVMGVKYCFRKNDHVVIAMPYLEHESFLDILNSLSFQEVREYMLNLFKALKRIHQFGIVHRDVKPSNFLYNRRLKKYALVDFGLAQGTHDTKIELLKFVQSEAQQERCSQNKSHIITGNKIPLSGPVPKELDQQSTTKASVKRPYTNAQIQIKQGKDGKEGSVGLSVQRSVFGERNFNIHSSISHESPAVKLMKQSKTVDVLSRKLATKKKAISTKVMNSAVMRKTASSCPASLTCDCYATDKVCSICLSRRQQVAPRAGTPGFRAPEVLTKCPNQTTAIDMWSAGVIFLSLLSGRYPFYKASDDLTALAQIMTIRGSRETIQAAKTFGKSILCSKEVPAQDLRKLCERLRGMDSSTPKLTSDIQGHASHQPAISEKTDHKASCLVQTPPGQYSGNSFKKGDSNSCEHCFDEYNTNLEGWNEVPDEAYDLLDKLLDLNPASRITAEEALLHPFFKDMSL
T1 sequence (Q9UBU7 whole entry partner): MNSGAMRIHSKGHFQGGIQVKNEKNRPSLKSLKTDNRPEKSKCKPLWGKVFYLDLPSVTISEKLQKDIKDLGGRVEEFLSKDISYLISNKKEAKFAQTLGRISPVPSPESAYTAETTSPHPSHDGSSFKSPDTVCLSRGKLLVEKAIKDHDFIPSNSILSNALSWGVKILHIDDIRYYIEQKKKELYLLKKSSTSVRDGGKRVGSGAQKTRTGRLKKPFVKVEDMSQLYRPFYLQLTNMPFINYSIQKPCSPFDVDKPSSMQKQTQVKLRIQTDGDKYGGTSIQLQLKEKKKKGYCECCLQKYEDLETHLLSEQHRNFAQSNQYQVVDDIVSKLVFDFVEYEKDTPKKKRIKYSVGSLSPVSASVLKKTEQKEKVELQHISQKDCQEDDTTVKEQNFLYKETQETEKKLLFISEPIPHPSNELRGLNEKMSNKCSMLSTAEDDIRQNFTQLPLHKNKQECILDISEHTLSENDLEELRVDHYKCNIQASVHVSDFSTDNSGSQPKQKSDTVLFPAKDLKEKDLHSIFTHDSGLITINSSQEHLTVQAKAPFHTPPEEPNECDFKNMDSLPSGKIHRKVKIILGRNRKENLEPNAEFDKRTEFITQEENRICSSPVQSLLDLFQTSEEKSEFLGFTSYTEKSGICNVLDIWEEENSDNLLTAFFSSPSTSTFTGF
Excerpt: This protocol describes a method to investigate the inhibition of Cdc7 activity by measuring pS53MCM2 levels in cells, after treatment with compounds.
• SW48 cells • RPMI 1640 (Sigma, R5886) • 10% FCS (Sera Laboratories International Ltd, EU000F Batch: 108005) • 100× L-Glutamine (Invitrogen, 25030-024) • D-Glucose Solution (10%) (Sigma, G8644) • HEPES Buffer Solution (Sigma, 83264) • Sodium Pyruvate (Sigma, S8636) • PBS (Fisger, BP399-4) • Trypsin/EDTA (Invitrogen 25300-054) • 2% BSA in PBS • Cell Extraction Buffer (Invitrogen FNN0011) • Protease inhibitor cocktail (Sigma P-2714) • PMSF 0.3M stock in DMSO (Sigma P7626) • Antibody—rabbit pMCM2 Ser53 (Bethyl #A300-756A) • Antibody—goat MCM2 (Bethyl #A300-122A) • Antibody—goat Anti Rabbit IgG HRP (Perbio Science UK Ltd 31462) • SuperSignal ELISA Pico Chemiluminescent Substrate (Perbio Science UK Ltd 37070) Method • Plate 30,000 SW48 cells per well in standard TC treated 96 well plate in 100 μL complete RPMI 1640 medium. • Allow cells to settle overnight in incubator set at 37° C. and 5% CO2. • Cell treatment: prepare a 384 well plate containing 80 μl PBS/well. The PBS should be at room temperature—to be referred to as intermediate plate. Transfer 2 μL of compound from mother plate to intermediate (daughter plate) 1:40 dilution, then 5 μL intermediate to cell (daughter) plate. • Once all cells are treated place the cells back to the incubator and incubate for 6 hours. • Dilute the capture antibody (total MCM2 #A300-122A) 1 in 250 in the required volume of PBS (5 mL per assay plate, plus 5 mL for dead volume) and add 50 μL to each well of a Hybond plate. Seal the plate and incubate at room temperature for a minimum of 2 hours. • Defrost aliquot of Invitrogen Cell Extraction Buffer (FNN0011) on ice and supplement with appropriate volume of both Sigma protease inhibitor cocktail (P-2714) and PMSF (final cone 1 mM from a 1 M stock in DMSO). • After the 6 hour cell treatment time, tap out the media from the assay plates and place them in the −80° C. freezer for at least 5 minutes. • Remove plates from freezer and add 20 μL of ice cold complete lysis buffer, with the multidrop. Incubate cells for 30 minutes at 4° C. • Add 80 μL per well 2% BSA. • Flick out the remaining liquid from the capture plate and transfer 80 μL from the lysis plate to the same wells in the capture/ELISA plate, using the Biomek. Cover with plate seal and incubate plates overnight at 4° C. • Wash plates with PBS, remove any residual remaining liquid and add 50 μL per well of pMCM2 Ser53 antibody (#A300-756A) diluted 1 in 100 in 2% BSA. Cover plate and incubate at room temperature for 2 hours with gentle shaking. • Wash plates with PBS, remove any residual remaining liquid and Incubate with 50 μL goat anti rabbit antibody (1 in 800 dilution in 2% BSA), for 1 hour at room temperature. • Wash plates with PBS, remove any residual remaining liquid and add 50 μL mixed SuperSignal Pico substrate. • Incubate each plate for 5 minutes at room temperature shielding the plates from direct light (with a cover plate). Read plates with the luminescent detection. Results

Cdc7 [2] = target: T1, Cdc7; assay: Cdc7 cell pharmacodynamics assay Method 2: pS40MCM2 levels in HCT116 cells; assay type: cell-based; set-up: endogenous in cells; details: 18 hours treatment, read-out: Biomarker Method 2 (pEC50) (converted)
Excerpt: This protocol describes a method to investigate the inhibition of Cdc7 activity by measuring pS40MCM2 levels in cells, after treatment with compounds.
• HCT116 cells (ATCC, #CCL-247) • McCoys 5A with L-glutamine (Cellgro, #10-050-CV) • 10% FCS (Cellgro, #35-010-CV) • D-PBS without CaCl2 and MgCl2 (Cellgro, #21-031-CV) • Trypsin/EDTA (Cellgro, #25-052-CL) • BSA (Calbiochem, 126593) • Cell Extraction Buffer (Invitrogen FNN0011) • Protease inhibitor cocktail (Sigma P-2714) • PMSF 0.3M stock in DMSO (Sigma P7626) • Antibody—rabbit pMCM2 Ser40 (Abeam, AB133243) • Antibody—goat MCM2 (Bethyl #A300-122A) • Antibody—goat Anti Rabbit IgG HRP (Thermo, 31462) • SuperSignal ELISA Pico Chemiluminescent Substrate (Perbio Science UK Ltd 37069) • 10×PBS (Growcells, MRGF-6236) • Triton X100 (Sigma, P-T8787) • DMSO (Fisher, D128-1) • 2-Propanol (J. T. Baker, 9095-03) Method • Seed 1×10^6 HCT116 cells into each of two 175 cm^2 flask containing 30 mL Cell Growth Media and incubate at 37° C., 5% CO2 for 3 days. • Harvest the cells from one T175 cm^2 flask and count. • Dilute with Cell Growth Media to a cell density of 2×10^5. Dispense 100 μL to each well (20,000 HCT116 cells/well) of TC treated 96-well plate(s). • Allow cells to settle overnight in incubator set at 37° C. and 5% CO2. • Cell treatment: Transfer 0.25 μL/well from the compound plate to the wells of the cell plate(s). This is a 1:400 dilution of compound in the assay. • Once all cells are treated place the cells back to the incubator and incubate for 18 hours. • Dilute the capture antibody (total MCM2 #A300-122A) 1 in 250 in the required volume of PBS (5 mL per assay plate, plus 5 mL for dead volume) and add 50 μL to each well of a Hybond plate except wells A12 & B12. Seal the plate and incubate at room temperature fora minimum of 2 hours. • Defrost aliquot of Invitrogen Cell Extraction Buffer (FNN0011) on ice and supplement with appropriate volume of both Sigma protease inhibitor cocktail (P-2714) and PMSF (final cone 1 mM from a 1 M stock in DMSO). • After the 6 hour or 18 hour cell treatment time, tap out the media from the assay plates and place them in the −70° C. freezer for at least 5 minutes. • Flick out the remaining liquid in the previously prepared capture Ab plate(s) and add 200 μL 2% BSA per well. Incubate for 1 hour at room temperature. • Remove plates from freezer and add 20 μL of ice cold complete lysis buffer. Incubate cells for 30 minutes at 4° C. • Add 30 μL per well 2% BSA • At the end of the 1 hour incubation, wash the Capture/ELISA plate(s) with Wash Buffer on the BioTek plate washer. • Transfer 40 μL per well of the lysis plate(s) to the same wells in the Capture/ELISA plate. Incubate cells overnight at 4° C. • At the end of the overnight incubation, wash the ELISA plate(s) with Wash Buffer on BioTek plate washer. • Prepare Detection Antibody Buffer and dispense 50 μL to all wells of ELISA plate(s) except wells G1 & H1. Cover plate and incubate at room temperature for 2 hours with gentle shaking. • At the end of the 2 hour incubation, wash the ELISA plate(s) with Wash Buffer on the BioTek plate washer. • Prepare the Conjugated Antibody Buffer and dispense 50 μL to all wells of ELISA plate(s). • Cover the plate and incubate at room temperature for 1 hour with gentle shaking. • At the end of the 1 hour incubation, wash the ELISA plate(s) with Wash Buffer on the BioTek plate washer. • Prepare Substrate Buffer and dispense 50 μL to all wells of ELISA plate(s). • Incubate for a minimum of 10 minutes and read plates on the EnVision 2100 Multilabel Reader (Mirror: Luminescence (404) & Luminescence 700 (212); Measurement Height: 6.5 mm; Measurement Time: 0.2 s). Method 3

Cdc7/Dbf4 = Cdc7/Dbf4 (Homo sapiens, UniProt O00311); assay: Cdc7 biochemical assay Method 2: Cdc7/Dbf4 Enzyme TR-FRET Assay measuring pS40MCM2; details: pS40 MCM2 peptide, 1 μM ATP, 25° C., 120 minutes, read-out: Biochemical Method 2 (pIC50) (converted)
Sequence of Cdc7/Dbf4 (O00311 whole entry): as the sequence (O00311 whole entry) above
Sequence of Cdc7/Dbf4 (Q9UBU7 whole entry partner): as the sequence (Q9UBU7 whole entry partner) above
Experimental: This protocol describes a method for assaying a compounds' ability to inhibit Cdc7 activity by measuring pS40MCM2 levels in a Cdc7/Dbf4 Enzyme TR-FRET Assay.
2.5 nM Cdc7/Dbf4 was incubated with 100 nM of biotin-labelled peptide 35-TDALTS(pS)PGRDLP in the presence of 1 μM ATP at 25° C. for 120 minutes. The phosphorylation of the peptide was detected using TR-FRET. Anti-Mcm2 (pS40) antibody, Terbium anti-rabbit secondary antibody and Streptavidin-Alexa Fluor488 form the detection system.

SMILES: O=c1[nH]c(-c2cn[nH]c2C(F)(F)F)nc(N2CCOCC2)c1Cl [Compound 47, 5-chloro-4-morpholino-2-[5-(trifluoromethyl)-1H-pyrazol-4-yl]-1H-pyrimidin-6-one]
EC50 (Cdc7 [1]): 1170 nM | EC50 (Cdc7 [2]): 38 nM | IC50 (Cdc7/Dbf4): 0.776 nM

SMILES: CC1(C)CNCCN1c1nc(-c2cn[nH]c2C(F)(F)F)[nH]c(=O)c1Cl [Compound 46, 5-chloro-4-(2,2-dimethylpiperazin-1-yl)-2-[5-(trifluoromethyl)-1H-pyrazol-4-yl]-1H-pyrimidin-6-one]
EC50 (Cdc7 [2]): 151 nM | IC50 (Cdc7/Dbf4): 1.66 nM

SMILES: Cc1[nH]ncc1-c1nc(N2CCNC[C@H]2C)c(Cl)c(=O)[nH]1 [Compound 48, 5-chloro-4-[(2R)-2-methylpiperazin-1-yl]-2-(5-methyl-1H-pyrazol-4-yl)-1H-pyrimidin-6-one]
EC50 (Cdc7 [2]): 457 nM | IC50 (Cdc7/Dbf4): 2.24 nM

The next lines start with the values.

EC50 (Cdc7 [1]): 955 nM | EC50 (Cdc7 [2]): 33.1 nM | IC50 (Cdc7/Dbf4): 1.29 nM
SMILES: C[C@@H]1COCCN1c1nc(-c2c[nH]c3ncccc23)[nH]c(=O)c1Cl [Compound 53, 5-chloro-4-[(3R)-3-methylmorpholin-4-yl]-2-(1H-pyrrolo[2,3-b]pyridin-3-yl)-1H-pyrimidin-6-one]

EC50 (Cdc7 [1]): 1170 nM | EC50 (Cdc7 [2]): 44.7 nM | IC50 (Cdc7/Dbf4): 1.95 nM
SMILES: O=c1[nH]c(-c2cn[nH]c2C(F)(F)F)nc(N2CCNCC(F)(F)C2)c1Cl [Compound 45, 5-chloro-4-(6,6-difluoro-1,4-diazepan-1-yl)-2-[5-(trifluoromethyl)-1H-pyrazol-4-yl]-1H-pyrimidin-6-one]

EC50 (Cdc7 [1]): 5750 nM | EC50 (Cdc7 [2]): 851 nM | IC50 (Cdc7/Dbf4): 7.08 nM
SMILES: O=c1[nH]c(-c2c[nH]c3ncccc23)nc(N2CCNCC(F)(F)C2)c1Cl [Compound 52, 5-chloro-4-(6,6-difluoro-1,4-diazepan-1-yl)-2-(1H-pyrrolo[2,3-b]pyridin-3-yl)-1H-pyrimidin-6-one]
